For data set [1], the system named is GBM xenograft rat model. In words: In vivo GBM rat model: survival. The settings on record: GBM rats, 30 mg/kg oral gavage once daily for 5 days, 14th to 28th day, compared to untreated GBM rats. How it is done: (§1) An in Vivo study was performed to assess the therapeutic potential of TR-G002, TR-G045, TR-G053, TR-G066, TR-G071 and TR-G091 in the GBM xenograft rat model when administered orally by gavage for five consecutive days. 152 female rats of the Sprague Dawley strain were allocated to the study. Six groups of sixteen females were given dose of 30 mg/kg of the respective target compounds. […] The study design can be seen in Fig. 11 and Table 10.
(§2) Female Sprague Dawley rats (age: 6-8 weeks; weight: 255-310 g; ATADEM, Erzurum, Turkey) were utilized in the study. Rats underwent anaesthesia with 5% isoflurane, maintained at 2% isoflurane (1 L/min oxygen), and were positioned in a stereotactic frame for cell implantation (Stoelting Co., IL). […] A burr hole was drilled 1-mm anterior and 3-mm lateral to the right bregma. A microsyringe (Hamilton 1700 series) containing 5×10^4 U87-MG cells suspended in 5 µL of medium at 37 °C was advanced to a depth of 4 mm into the brain. The cells were injected at a rate of 3 µL/ min. Bone wax was used to fill the burr hole to prevent cell suspension reflux. The incision was sutured, and 1 mL of Meloxicam (5 mg/mL; Metacam, Boehringer Ingelheim Vetmedica, Ingelheim, Germany) was administered via a subcutaneous injection.
(§3) Fourteen days after inoculation, tumor development in rats was visualized and confirmed through magnetic resonance imaging (MRI). Rats confirmed to have developed tumors were then distributed into six different groups for treatment. […] 9 days after the final treatment dose, the rats underwent another MRI scan and blood and brain samples were taken under anaesthesia.

Data set [2] in a line: In vivo GBM rat model: plasma chemistry. The settings on record: for ALP / ALT / AST / CREA. / GLU / HDLC / LDH / LDL C / TCHOL / TG / UA: GBM rats, 30 mg/kg oral, 5 days, plasma at necropsy; for levels of AST, ALT and LDH: in comparison to the levels in untreated GBM rats. On the set-up: CREA. / UA / TCHOL / HDLC: unit not given here. How it is done: The parameters that were analysed can be seen in Table 11.

Data set [3] can be described thus: Peripheral blood micronucleus assay. It is filed as in vivo, Rat. The settings on record: for MN frequency: GBM rats, 30 mg/kg oral, 5 days, 1000 cells per animal evaluated. The protocol:
Blood smears were made on clean microscope slides, allowed to air-dry, treated with methanol for fixation, and then stained with Giemsa (10% in 0.1 mM of sodium phosphate buffer, pH 6.8) for 10 min. After washing with PBS, the slides were examined under a light microscope. The frequencies of micronuclei (MN) were calculated by evaluating 1000 cells per animal.

Data set [4] relates to GBM xenograft rat model. The data set is described as follows: In vivo GBM rat model: MRI analysis of tumor volumes. The settings on record: GBM rats, 30 mg/kg oral, 5 days; for antitumor activities, order: ranking; for tumor size: MRI 14th vs 28th day. How it is done: as §1, §2, §3
The anaesthetic was administered via an intraperitoneal route on animals fixed in the supine position with parallel hind limbs. MRI was performed using a 3 Tesla clinical scanner (Magnetom Skyra; Siemens Healthineers, Erlangen, Germany). Rats were placed in the prone position. T2-SPACE (sampling perfection with application-optimized contrast using different flip angle Evolution) sequence was obtained to view the brain in coronal and transverse planes. (TR: 6000 ms, TE: 100 ms, voxel size: 0.5 × 0.5 × 1 mm, 34 slices, slice thickness: 2 mm, slice spacing: 0.6 mm). The volume measurements of brain tumors were performed manually. One radiologist calculated the tumour volume - manually measuring tumour length (L), width (W), and height (H) - and then calculated the tumour volume using the formula 0.5236 × L × W × H (Stuppner S et al., 2020).

In a further data set the test system is H2A.X. The data set is described as follows: In vivo GBM rat model: double immunofluorescence examination. The settings on record: neurons, brain tissues, GBM rats, 30 mg/kg oral, 5 days. The protocol:
(§4) In immunofluorescence examinations, primary antibody (NOP10 Cat no: ab134902 dilution ratio: 1/100) was applied to tissues and incubated according to the instructions. A fluorescent secondary antibody (FITC Cat No: ab6785 dilution Ratio: 1/1000 UK) was then applied and incubated in the dark for 45 minutes. Afterward, a second primary antibody (H2A.X Cat no: sc-517336 dilution ratio: 1/100) was applied and incubated according to the instructions. A different fluorescent secondary antibody (Texas Red Cat No: ab6719 dilution Ratio: 1/1000 UK) was applied and incubated in the dark for 45 minutes. Finally, DAPI (Cat no: D1306 dilution ratio: 1/200 UK) was applied to the sections for 5 minutes in the dark, followed by covering the tissues with coverslips. The stained tissues were examined under a fluorescence attachment-equipped microscope (Zeiss AXIO, Germany).
(§5) Individual body weights were manually calculated. Group mean body weights; group mean body weight changes and organ weights were also manually calculated without statistical analysis. To determine the density of positive staining from immunohistochemical and immunofluorescence staining images, five randomly selected areas were evaluated using ZEISS Zen Imaging Software. Data were statistically defined as mean and standard deviation (mean ± SD) for the percentage of the area. One-way ANOVA followed by the Tukey test was performed to compare immunoreactive cells and immune-positive stained areas with healthy controls. GraphPad Prism software was used for analysis.

The subject of a further data set is NOP10. Described as above. The settings on record: neurons, brain tissues, GBM rats, 30 mg/kg oral, 5 days. How it is done:
as §4, §5

Data set [5] has as its system U138-MG human glioma cell. The data set is described as follows: Cell proliferation analysis (MTT). The class given is cell-based. The settings on record: for activity at 10 µM / inhibition at 10 µM: Homo sapiens, 48 h, two days, MTT.
A further data set has as its system U87-MG human glioma cell. In words: Cell proliferation analysis (MTT). It is filed as cell-based. The settings on record: for activity at 10 µM / inhibition at 10 µM: Homo sapiens, U-87 MG, 48 h, two days, MTT.

Each structure is given as a SMILES string. Entries after “also recorded” stand apart in the source; their conditions may differ.

The inhibition is the relative decrease from the control value, in per cent.

Turning to `COc1cc(NC(=O)COc2ccc3c(c2)CCC(=O)N3)cc(OC)c1` [TR-G091, N-(3,5-dimethoxyphenyl)-2-((2-oxo-1,2,3,4-tetrahydroquinolin-6-yl)oxy)acetamide], the survival entry with GBM xenograft rat model [1] is “prolonged survival”. Moreover, in data set [2], the ALP is 122.87 IU/L, the ALT is on record as 46.97 IU/L, the AST is 127.9 IU/L and the CREA. turned out to be 0.29. For the same compound, in data set [2], the GLU came to 299 mg/dL, the HDLC is given as 36.57, the LDH stood at 546.17 IU/L and the “LDL C” value amounted to 5.03 mmol/L. Besides, in data set [2], the TCHOL was determined as 54.43, the TG worked out at 121 mg/dL and the UA turned out to be 1.7. The MN frequency in data set [3] came to 11.65 ± 2.30. Further, the “antitumor activities, order” value with GBM xenograft rat model [4] was “TR-G066> TR-G045> TR-G002>TMZ> TR-G091> TR-G053> TR-G071”. In addition, the “expressions of H2AX” value in the data set with H2A.X was “moderate”. In the data set with NOP10, the “expressions of Nopio” value is “moderate”. In data set [5], the activity at 10 µM is 86% and the inhibition at 10 µM amounted to 14%. Also, in the data set on U87-MG human glioma cell, the activity at 10 µM stood at 101% and the inhibition at 10 µM is -1%.

On to `C=Cc1ccc(COc2ccc3c(c2)CCC(=O)N3)cc1` [TR-G053, 6-((4-vinylbenzyl)oxy)-3,4-dihydroquinolin-2(1H)-one], for which the survival entry in the data set with GBM xenograft rat model [1] is recorded as “prolonged survival”. In data set [2], this compound displayed an ALP of 125.67 IU/L, an ALT of 44.57 IU/L, an AST of 96.87 IU/L and a CREA. of 0.34. Also, in data set [2], the GLU came to 293 mg/dL, the HDLC is listed as 34.33, the LDH is 514 IU/L and the “LDL C” value stood at 5.63 mmol/L. In data set [2], the TCHOL is reported as 56.33; the TG came to 117 mg/dL; the UA came out at 1.64; the “levels of AST, ALT and LDH” value is “significantly decreased”. For the same compound, the MN frequency in data set [3] is 9.67 ± 1.21. In addition, the “MN frequency (comparison)” value in data set [3] (treated GBM rats) is “lowest MN frequency”. Also, the “antitumor activities, order” value with GBM xenograft rat model [4] is recorded as “TR-G066> TR-G045> TR-G002>TMZ> TR-G091> TR-G053> TR-G071”. Also, the “expressions of H2AX” value with H2A.X was “severe”. Moreover, in the data set on NOP10, the “expressions of Nopio” value is listed as “severe”. Besides, in data set [5], the activity at 10 µM amounted to 53% and the inhibition at 10 µM is 47%. In addition, in the data set with U87-MG human glioma cell, the lowest cell proliferation was 42%, the activity at 10 µM was found to be 42% and the inhibition at 10 µM was 58%. The “top 5 target compounds whose treatment resulted in the lowest proliferation” value in the data set with U87-MG human glioma cell (ranking) was “top 5”.

Consider `CC(C)CCOc1ccc2c(c1)CCC(=O)N2` [TR-G002, 6-(isopentyloxy)-3,4-dihydroquinolin-2(1H)-one], for which the survival result in the data set on GBM xenograft rat model [1] (30 mg/kg) is on record as “significantly improved survival; also recorded: prolonged survival”. In data set [2], this compound displayed an ALP of 124.22 IU/L, an ALT of 48.37 IU/L, an AST of 129.93 IU/L and a CREA. of 0.31. In addition, in data set [2], the GLU turned out to be 317 mg/dL, the HDLC worked out at 37.5, the LDH is 535.72 IU/L and the “LDL C” value was 4.42 mmol/L. In data set [2], the TCHOL came to 54.38, the TG turned out to be 115 mg/dL and the UA is on record as 1.71. This compound also gave an MN frequency in data set [3] of 11.62 ± 2.34. In addition, in the data set with GBM xenograft rat model [4], the tumor size result is reported as “small increase in tumor size” and the “antitumor activities, order” value was “TR-G066> TR-G045> TR-G002>TMZ> TR-G091> TR-G053> TR-G071”. Besides, in the data set with H2A.X, the “expressions of H2AX” value is on record as “mild”. For the same compound, the “expressions of Nopio” value with NOP10 is given as “mild”. In data set [5], the activity at 10 µM came out at 52% and the inhibition at 10 µM is 48%. Further, in the data set with U87-MG human glioma cell, the activity at 10 µM is 48% and the inhibition at 10 µM worked out at 52%.

As for `O=C1CCc2cc(OS(=O)(=O)c3cccc4ccccc34)ccc2N1` [TR-G045, 2-oxo-1,2,3,4-tetrahydroquinolin-6-yl naphthalene-1-sulfonate], the survival result with GBM xenograft rat model [1] (30 mg/kg) is “significantly improved survival; also recorded: prolonged survival”. In data set [2], this compound gave an ALP of 138.47 IU/L, an ALT of 54.5 IU/L, an AST of 104.7 IU/L and a CREA. of 0.35. Besides, in data set [2], the GLU amounted to 316 mg/dL, the HDLC turned out to be 37.58, the LDH is 506.78 IU/L and the “LDL C” value stood at 5.28 mmol/L. In data set [2], the TCHOL was 56.52; the TG was found to be 120 mg/dL; the UA is listed as 1.6; the “levels of AST, ALT and LDH” value is on record as “significantly decreased”. This compound also came in with an MN frequency in data set [3] of 12.05 ± 1.78. Moreover, in the data set on GBM xenograft rat model [4], the tumor size result is “decrease in tumor size” and the “antitumor activities, order” value is listed as “TR-G066> TR-G045> TR-G002>TMZ> TR-G091> TR-G053> TR-G071”. The “expressions of H2AX” value with H2A.X is given as “moderate”. The “expressions of Nopio” value in the data set with NOP10 is on record as “moderate”. In data set [5], the activity at 10 µM was 71% and the inhibition at 10 µM was 30%. Also, in the data set on U87-MG human glioma cell, the activity at 10 µM came to 71% and the inhibition at 10 µM came to 29%.

Take `O=C(COc1ccc2c(c1)CCC(=O)N2)N/N=C/c1cnc(-c2ccc(Cl)cc2)nc1` [TR-G066, (E)-N'-((2-(4-chlorophenyl)pyrimidin-5-yl)methylene)-2-((2-oxo-1,2,3,4-tetrahydroquinolin-6-yl)oxy)acetohydrazide]: the survival entry in the data set with GBM xenograft rat model [1] (30 mg/kg) is reported as “significantly improved survival; also recorded: highest survival; also recorded: prolonged survival”. In data set [2], the ALP worked out at 137.08 IU/L, the ALT was determined as 38.94 IU/L, the AST was 96.48 IU/L and the CREA. amounted to 0.38. Moreover, in data set [2], the GLU was 295 mg/dL, the HDLC was determined as 34.24, the LDH came to 476.16 IU/L and the “LDL C” value is 4.94 mmol/L. In data set [2], the TCHOL turned out to be 58.56; the TG was 122 mg/dL; the UA worked out at 1.7; the “levels of AST, ALT and LDH” value was “significantly decreased”. The same compound returned an MN frequency in data set [3] of 10.91 ± 1.89. For the same compound, in the data set on GBM xenograft rat model [4] (30 mg/kg), the tumor size result is on record as “decrease in tumor size; also recorded: reduced the tumor size”. The “antitumor activities, order” value in the data set with GBM xenograft rat model [4] is “TR-G066> TR-G045> TR-G002>TMZ> TR-G091> TR-G053> TR-G071”. Besides, the “expressions of H2AX” value in the data set with H2A.X is reported as “very mild”. Moreover, the “expressions of Nopio” value with NOP10 is reported as “very mild”. For the same compound, in data set [5], the lowest cell proliferation amounted to 39% and the inhibition at 10 µM amounted to 62%. For the same compound, the inhibition at 10 µM with U87-MG human glioma cell came to 33%.

Values taken from patent publication EP4644375A1, “SUBSTITUTED HYDROQUINOLINES FOR THE TREATMENT OF GLIOBLASTOMA MULTIFORME” (Molius Saglik Teknolojileri Anonim Sirketi, priority 2024, dated 2025).
